In US11464763B2, “Parasiticidal compositions comprising an isoxazoline active agent, methods and uses thereof” (BOEHRINGER INGELHEIM ANIMAL HEALTH USA INC., priority 2011, dated 2022):

Columns and labels:
Ctenocephalides felis = experiment: Long lasting spot-on efficacy against Ctenocephalides felis fleas in cats (Example 9); format: in vivo; details: Group 4: 15.0% in DMI, 15 mg/kg
Experimental: The efficacy of spot-on compositions comprising Cmpd. A in DMI at different doses against Ctenocephalides felis fleas in cats was studied. Four treatment groups were formed with five cats per treatment group: Group 1—untreated control; Group 2—Compound A at 5.0% (w/v) in DMI to deliver a dose of 5 mg/kg; Group 3—Compound A at a concentration of 10.0% (w/v) in DMI to deliver a dose of 10 mg/kg; and Group 4—Compound A at a concentration of 15.0% (w/v) in DMI to deliver a dose of 15 mg/kg. Treatment was administered once on Day 0. The cats were each infested with approximately 100 C. felis fleas at each time point evaluated.
Cats in all treatment groups were infested on Days −1, 0 (approx. 12 h following treatment), 7, 28, 49, 70, 91, 105, 119 and 133. Cats were also infested on Days 126 and 140 (Treatment Groups 1 and 2); Days 147, 154, 155, 161, 168 and 175 (Treatment Groups 1, 3 and 4); Days 182, 189 and 197 (Treatment Groups 1 and 4). After each infestation, fleas were removed and counted approximately 48 hours (±3 hours) for most time points.

Amblyomma americanum = experiment: Dose characterization of spot-on formulations against Amblyomma americanum ticks in dogs (Example 4); format: in vivo
Experimental: The efficacy of a spot-on composition of the invention comprising an isoxazoline compound (Cmpd. A) in a carrier vehicle comprising either DES alone or DES+lauryl lactate (LL), against ticks (Amblyomma americanum), in dogs was studied. The compositions contained 3.0%, 4.5%, or 6.0% Cmpd. A in either DES alone or DES+lauryl lactate, which delivered doses of […], respectively, of Cmpd. A to dogs infested with A. Americanum ticks.
Seven Treatment Groups were evaluated. Treatment Group 1 was administered a placebo formulation and served as a control. Treatment Groups 2, 3 and 4 were administered a topical formulation comprising 6.0% (w/v), 4.5% (w/v) and 3.0% (w/v) of Cmpd. A in DES, respectively, corresponding to doses of 4.0 mg/kg, 3.0 mg/kg and 2.0 mg/kg, respectively. Treatment Groups 5, 6 and 7 were administered a topical formulation comprising 6.0% (w/v), 4.5% (w/v) and 3.0% (w/v) of Cmpd. A in DES+9% lauryl lactate, respectively, corresponding to doses of […], 3.0 mg/kg and 2.0 mg/kg body weight Cmpd. A, respectively.
All dogs were treated once topically on Day 0 by parting the hair and applying the solution from a syringe directly onto the skin in a single spot on the midline of the neck between the base of the skull and the shoulder blades.
All dogs were infested with approximately 50 A. americanum on Days −1, 7, 14, 21, 28, 35 and 42. Ticks were counted upon removal on Days 2, 9, 16, 23, 30, 37 and 44. The % reduction of ticks for each Group is presented Table 5 below.

With O=C(CNC(=O)c1ccc(C2=NOC(c3cc(Cl)cc(C(F)(F)F)c3)(C(F)(F)F)C2)c2ccccc12)NCC(F)(F)F (centres unmarked) [Compound A, 4-[5-[3-chloro-5-(trifluoromethyl)phenyl]-4,5-dihydro-5-(trifluoromethyl)-3-isoxazolyl]-N-[2-oxo-2-[(2,2,2-trifluoroethyl)amino]ethyl]-1-naphthalanecarboxamide] the “% Reduction Fleas” value (Ctenocephalides felis; Day 184) was 95.7%, the “% Reduction Fleas” value (Ctenocephalides felis; Day 191) was 90.6% and the “% Reduction Fleas” value (Ctenocephalides felis; Day 199) was 79.2%. For the same molecule, the “% Reduction Ticks” value (Amblyomma americanum; Group 2: 6.0% in DES, 4.0 mg/kg, Day 2) was 97.4%, the “% Reduction Ticks” value (Amblyomma americanum; Group 2: 6.0% in DES, 4.0 mg/kg, Day 9) was 100.0% and the “% Reduction Ticks” value (Amblyomma americanum; Group 2: 6.0% in DES, 4.0 mg/kg, Day 16) was 100.0%. The “% Reduction Ticks” value (Amblyomma americanum; Group 2: 6.0% in DES, 4.0 mg/kg, Day 23) was 100.0%, the “% Reduction Ticks” value (Amblyomma americanum; Group 2: 6.0% in DES, 4.0 mg/kg, Day 30) was 82.5% and the “% Reduction Ticks” value (Amblyomma americanum; Group 2: 6.0% in DES, 4.0 mg/kg, Day 37) was 97.9%. For the same molecule, the “% Reduction Ticks” value (Amblyomma americanum; Group 2: 6.0% in DES, 4.0 mg/kg, Day 44) was 84.2%, the “% Reduction Ticks” value (Amblyomma americanum; Group 3: 4.5% in DES, 3.0 mg/kg, Day 2) was 90.0% and the “% Reduction Ticks” value (Amblyomma americanum; Group 3: 4.5% in DES, 3.0 mg/kg, Day 9) was 100.0%. For the same molecule, the “% Reduction Ticks” value (Amblyomma americanum; Group 3: 4.5% in DES, 3.0 mg/kg, Day 16) was 97.6%, the “% Reduction Ticks” value (Amblyomma americanum; Group 3: 4.5% in DES, 3.0 mg/kg, Day 23) was 82.0% and the “% Reduction Ticks” value (Amblyomma americanum; Group 3: 4.5% in DES, 3.0 mg/kg, Day 30) was 70.0%. The “% Reduction Ticks” value (Amblyomma americanum; Group 3: 4.5% in DES, 3.0 mg/kg, Day 37) was 80.4%, the “% Reduction Ticks” value (Amblyomma americanum; Group 3: 4.5% in DES, 3.0 mg/kg, Day 44) was 56.0% and the “% Reduction Ticks” value (Amblyomma americanum; Group 4: 3.0% in DES, 2.0 mg/kg, Day 2) was 95.4%. For the same molecule, the “% Reduction Ticks” value (Amblyomma americanum; Group 4: 3.0% in DES, 2.0 mg/kg, Day 9) was 100.0%, the “% Reduction Ticks” value (Amblyomma americanum; Group 4: 3.0% in DES, 2.0 mg/kg, Day 16) was 100.0% and the “% Reduction Ticks” value (Amblyomma americanum; Group 4: 3.0% in DES, 2.0 mg/kg, Day 23) was 79.5%. The “% Reduction Ticks” value (Amblyomma americanum; Group 4: 3.0% in DES, 2.0 mg/kg, Day 30) was 90.3%, the “% Reduction Ticks” value (Amblyomma americanum; Group 4: 3.0% in DES, 2.0 mg/kg, Day 37) was 57.1% and the “% Reduction Ticks” value (Amblyomma americanum; Group 4: 3.0% in DES, 2.0 mg/kg, Day 44) was 38.8%. For the same molecule, the “% Reduction Ticks” value (Amblyomma americanum; Group 5: 6.0% in DES+9% lauryl lactate, 4.0 mg/kg, Day 2) was 100.0%, the “% Reduction Ticks” value (Amblyomma americanum; Group 5: 6.0% in DES+9% lauryl lactate, 4.0 mg/kg, Day 9) was 100.0% and the “% Reduction Ticks” value (Amblyomma americanum; Group 5: 6.0% in DES+9% lauryl lactate, 4.0 mg/kg, Day 16) was 100.0%. The “% Reduction Ticks” value (Amblyomma americanum; Group 5: 6.0% in DES+9% lauryl lactate, 4.0 mg/kg, Day 23) was 94.3%, the “% Reduction Ticks” value (Amblyomma americanum; Group 5: 6.0% in DES+9% lauryl lactate, 4.0 mg/kg, Day 30) was 100.0% and the “% Reduction Ticks” value (Amblyomma americanum; Group 5: 6.0% in DES+9% lauryl lactate, 4.0 mg/kg, Day 37) was 89.0%. For the same molecule, the “% Reduction Ticks” value (Amblyomma americanum; Group 5: 6.0% in DES+9% lauryl lactate, 4.0 mg/kg, Day 44) was 84.8%, the “% Reduction Ticks” value (Amblyomma americanum; Group 6: 4.5% in DES+9% lauryl lactate, 3.0 mg/kg, Day 2) was 98.4% and the “% Reduction Ticks” value (Amblyomma americanum; Group 6: 4.5% in DES+9% lauryl lactate, 3.0 mg/kg, Day 9) was 100.0%. The “% Reduction Ticks” value (Amblyomma americanum; Group 6: 4.5% in DES+9% lauryl lactate, 3.0 mg/kg, Day 16) was 100.0%, the “% Reduction Ticks” value (Amblyomma americanum; Group 6: 4.5% in DES+9% lauryl lactate, 3.0 mg/kg, Day 23) was 93.1% and the “% Reduction Ticks” value (Amblyomma americanum; Group 6: 4.5% in DES+9% lauryl lactate, 3.0 mg/kg, Day 30) was 92.1%. For the same molecule, the “% Reduction Ticks” value (Amblyomma americanum; Group 6: 4.5% in DES+9% lauryl lactate, 3.0 mg/kg, Day 37) was 89.0%, the “% Reduction Ticks” value (Amblyomma americanum; Group 6: 4.5% in DES+9% lauryl lactate, 3.0 mg/kg, Day 44) was 53.6% and the “% Reduction Ticks” value (Amblyomma americanum; Group 7: 3.0% in DES+9% lauryl lactate, 2.0 mg/kg, Day 2) was 98.4%. The “% Reduction Ticks” value (Amblyomma americanum; Group 7: 3.0% in DES+9% lauryl lactate, 2.0 mg/kg, Day 9) was 100.0%, the “% Reduction Ticks” value (Amblyomma americanum; Group 7: 3.0% in DES+9% lauryl lactate, 2.0 mg/kg, Day 16) was 100.0% and the “% Reduction Ticks” value (Amblyomma americanum; Group 7: 3.0% in DES+9% lauryl lactate, 2.0 mg/kg, Day 23) was 80.6%. For the same molecule, the “% Reduction Ticks” value (Amblyomma americanum; Group 7: 3.0% in DES+9% lauryl lactate, 2.0 mg/kg, Day 30) was 88.9%, the “% Reduction Ticks” value (Amblyomma americanum; Group 7: 3.0% in DES+9% lauryl lactate, 2.0 mg/kg, Day 37) was 74.6% and the “% Reduction Ticks” value (Amblyomma americanum; Group 7: 3.0% in DES+9% lauryl lactate, 2.0 mg/kg, Day 44) was 42.4%. For the same molecule, the efficacy against ticks (Amblyomma americanum; Treatment Group 2 (4.0 mg/kg in DES alone), through Week 3) was “at least 90%” and the efficacy against ticks (Amblyomma americanum; Treatment Groups 5 and 6 (4.0 and 3.0 mg/kg in DES+LL), through five weeks) was “at least 90%”.
